Laboratory results: PubChem BioAssay (NCI)
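Step 1: Grow cells in 96-well plates. Step 2: Expose to compound for 48 hours at 5 concentrations. Step 3: Interpolate endpoints linearly; if unreached, use highest concentration. The concentration for 50% growth inhibition is given as GI50. TGI marks complete inhibition of growth.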

Experiments:
Test in all cases: NCI tumour cell line growth inhibition, 48 h
786-0 renal = tested on: 786-0 renal
A498 renal = tested on: A498 renal
A549 NSCLC = tested on: A549 NSCLC
ACHN renal = tested on: ACHN renal
BT-549 breast = tested on: BT-549 breast
CAKI-1 renal = tested on: CAKI-1 renal
CCRF-CEM leukemia = tested on: CCRF-CEM leukemia
COLO 205 colon = tested on: COLO 205 colon
DU-145 prostate = tested on: DU-145 prostate
EKVX NSCLC = tested on: EKVX NSCLC
HCC-2998 colon = tested on: HCC-2998 colon
HCT-116 colon = tested on: HCT-116 colon
HCT-15 colon = tested on: HCT-15 colon
HL-60(TB) leukemia = tested on: HL-60(TB) leukemia
HOP-62 NSCLC = tested on: HOP-62 NSCLC
HOP-92 NSCLC = tested on: HOP-92 NSCLC
HS 578T breast = tested on: HS 578T breast
HT29 colon = tested on: HT29 colon
IGROV1 ovarian = tested on: IGROV1 ovarian
K-562 leukemia = tested on: K-562 leukemia
KM12 colon = tested on: KM12 colon
LOX IMVI melanoma = tested on: LOX IMVI melanoma
M14 melanoma = tested on: M14 melanoma
MALME-3M melanoma = tested on: MALME-3M melanoma
MCF7 breast = tested on: MCF7 breast
MDA-MB-231 breast = tested on: MDA-MB-231 breast
MOLT-4 leukemia = tested on: MOLT-4 leukemia
NCI-H226 lung = tested on: NCI-H226 lung
NCI-H23 lung = tested on: NCI-H23 lung
NCI-H460 lung = tested on: NCI-H460 lung
NCI-H522 lung = tested on: NCI-H522 lung
NCI/ADR-RES ovarian = tested on: NCI/ADR-RES ovarian
OVCAR-3 ovarian = tested on: OVCAR-3 ovarian
OVCAR-4 ovarian = tested on: OVCAR-4 ovarian
OVCAR-5 ovarian = tested on: OVCAR-5 ovarian
OVCAR-8 ovarian = tested on: OVCAR-8 ovarian
PC-3 prostate = tested on: PC-3 prostate
RPMI-8226 leukemia = tested on: RPMI-8226 leukemia
RXF 393 renal = tested on: RXF 393 renal
SF-268 CNS = tested on: SF-268 CNS
SF-295 CNS = tested on: SF-295 CNS
SF-539 CNS = tested on: SF-539 CNS
SK-MEL-2 melanoma = tested on: SK-MEL-2 melanoma
SK-MEL-28 melanoma = tested on: SK-MEL-28 melanoma
SK-MEL-5 melanoma = tested on: SK-MEL-5 melanoma
SK-OV-3 ovarian = tested on: SK-OV-3 ovarian
SN12C renal = tested on: SN12C renal
SNB-19 CNS = tested on: SNB-19 CNS
SNB-75 CNS = tested on: SNB-75 CNS
SR leukemia = tested on: SR leukemia
SW-620 colon = tested on: SW-620 colon
T-47D breast = tested on: T-47D breast
TK-10 renal = tested on: TK-10 renal
U251 CNS = tested on: U251 CNS
UACC-257 melanoma = tested on: UACC-257 melanoma
UACC-62 melanoma = tested on: UACC-62 melanoma
UO-31 renal = tested on: UO-31 renal

Which GI50 (786-0 renal) does the source give for O=C(N/N=C/c1ccc[nH]1)c1[nH]c2ccc(Br)cc2c1-c1ccccc1 here?
The GI50 was 669 nM.

What about the TGI (786-0 renal) of the same compound?
The TGI was 7370 nM.

What about the GI50 (A498 renal) of the same compound?
The GI50 was 6360 nM.

What about the TGI (A498 renal) of the same compound?
Its TGI is 21900 nM.

What about the GI50 (A549 NSCLC) of the same compound?
The GI50 was 345 nM.

And the TGI (A549 NSCLC)?
Its TGI is 6880 nM.

And the GI50 (ACHN renal)?
The GI50 was 516 nM.

And the TGI (ACHN renal)?
The TGI was 5880 nM.

And the GI50 (BT-549 breast)?
Its GI50 is 416 nM.

What about the TGI (BT-549 breast) of the same compound?
The TGI was 2420 nM.

What about the GI50 (CAKI-1 renal) of the same compound?
The GI50 was 362 nM.

What about the TGI (CAKI-1 renal) of the same compound?
Its TGI is 9860 nM.

What about the GI50 (CCRF-CEM leukemia) of the same compound?
Its GI50 is 385 nM.

What about the TGI (CCRF-CEM leukemia) of the same compound?
The TGI was 11800 nM.

And the GI50 (COLO 205 colon)?
The GI50 was 298 nM.

And the TGI (COLO 205 colon)?
Its TGI is 1320 nM.

And the GI50 (DU-145 prostate)?
Its GI50 is 489 nM.

And the TGI (DU-145 prostate)?
Its TGI is 12400 nM.

What about the GI50 (EKVX NSCLC) of the same compound?
Its GI50 is 881 nM.

And the TGI (EKVX NSCLC)?
Its TGI is 9160 nM.

And the GI50 (HCC-2998 colon)?
The GI50 was 408 nM.

What about the TGI (HCC-2998 colon) of the same compound?
Its TGI is 4810 nM.

And the GI50 (HCT-116 colon)?
Its GI50 is 318 nM.

And the TGI (HCT-116 colon)?
The TGI was 11000 nM.

What about the GI50 (HCT-15 colon) of the same compound?
The GI50 was 297 nM.

And the TGI (HCT-15 colon)?
The TGI was 10900 nM.

And the GI50 (HL-60(TB) leukemia)?
Its GI50 is 235 nM.

And the TGI (HL-60(TB) leukemia)?
Its TGI is 619 nM.

What about the GI50 (HOP-62 NSCLC) of the same compound?
Its GI50 is 526 nM.

And the TGI (HOP-62 NSCLC)?
Its TGI is 8930 nM.

What about the GI50 (HOP-92 NSCLC) of the same compound?
The GI50 was 1770 nM.

And the TGI (HOP-92 NSCLC)?
The TGI was 9770 nM.

What about the GI50 (HS 578T breast) of the same compound?
The GI50 was 380 nM.

And the TGI (HS 578T breast)?
Its TGI is 19700 nM.

What about the GI50 (HT29 colon) of the same compound?
Its GI50 is 324 nM.

What about the TGI (HT29 colon) of the same compound?
Its TGI is 4310 nM.

What about the GI50 (IGROV1 ovarian) of the same compound?
Its GI50 is 460 nM.

And the TGI (IGROV1 ovarian)?
The TGI was 4100 nM.

And the GI50 (K-562 leukemia)?
Its GI50 is 253 nM.

What about the TGI (K-562 leukemia) of the same compound?
The TGI was 29800 nM.

What about the GI50 (KM12 colon) of the same compound?
Its GI50 is 477 nM.

What about the TGI (KM12 colon) of the same compound?
The TGI was 6080 nM.

And the GI50 (LOX IMVI melanoma)?
The GI50 was 310 nM.

And the TGI (LOX IMVI melanoma)?
Its TGI is 4970 nM.

What about the GI50 (M14 melanoma) of the same compound?
Its GI50 is 322 nM.

And the TGI (M14 melanoma)?
Its TGI is 10700 nM.

And the GI50 (MALME-3M melanoma)?
The GI50 was 410 nM.

What about the TGI (MALME-3M melanoma) of the same compound?
Its TGI is 11500 nM.

What about the GI50 (MCF7 breast) of the same compound?
Its GI50 is 178 nM.

And the TGI (MCF7 breast)?
Its TGI is 2410 nM.

And the GI50 (MDA-MB-231 breast)?
The GI50 was 572 nM.

And the TGI (MDA-MB-231 breast)?
The TGI was 6090 nM.

And the GI50 (MOLT-4 leukemia)?
Its GI50 is 437 nM.

What about the TGI (MOLT-4 leukemia) of the same compound?
Its TGI is 13400 nM.

What about the GI50 (NCI-H226 lung) of the same compound?
Its GI50 is 398 nM.

And the TGI (NCI-H226 lung)?
The TGI was 2780 nM.

And the GI50 (NCI-H23 lung)?
The GI50 was 456 nM.

And the TGI (NCI-H23 lung)?
Its TGI is 11300 nM.

And the GI50 (NCI-H460 lung)?
The GI50 was 338 nM.

What about the TGI (NCI-H460 lung) of the same compound?
The TGI was 1230 nM.

What about the GI50 (NCI-H522 lung) of the same compound?
The GI50 was 92.7 nM.

And the TGI (NCI-H522 lung)?
The TGI was 515 nM.

And the GI50 (NCI/ADR-RES ovarian)?
The GI50 was 316 nM.

And the TGI (NCI/ADR-RES ovarian)?
Its TGI is 2190 nM.

What about the GI50 (OVCAR-3 ovarian) of the same compound?
The GI50 was 477 nM.

What about the TGI (OVCAR-3 ovarian) of the same compound?
Its TGI is 12400 nM.

What about the GI50 (OVCAR-4 ovarian) of the same compound?
Its GI50 is 954 nM.

What about the TGI (OVCAR-4 ovarian) of the same compound?
Its TGI is 12100 nM.

And the GI50 (OVCAR-5 ovarian)?
Its GI50 is 489 nM.

What about the TGI (OVCAR-5 ovarian) of the same compound?
The TGI was 10700 nM.

What about the GI50 (OVCAR-8 ovarian) of the same compound?
The GI50 was 361 nM.

And the TGI (OVCAR-8 ovarian)?
The TGI was 3420 nM.

And the GI50 (PC-3 prostate)?
Its GI50 is 441 nM.

And the TGI (PC-3 prostate)?
Its TGI is 8150 nM.

What about the GI50 (RPMI-8226 leukemia) of the same compound?
Its GI50 is 400 nM.

What about the TGI (RPMI-8226 leukemia) of the same compound?
The TGI was 10700 nM.

And the GI50 (RXF 393 renal)?
The GI50 was 339 nM.

And the TGI (RXF 393 renal)?
The TGI was 10300 nM.

What about the GI50 (SF-268 CNS) of the same compound?
Its GI50 is 1570 nM.

And the TGI (SF-268 CNS)?
Its TGI is 9840 nM.

What about the GI50 (SF-295 CNS) of the same compound?
The GI50 was 243 nM.

And the TGI (SF-295 CNS)?
Its TGI is 1020 nM.

And the GI50 (SF-539 CNS)?
The GI50 was 219 nM.

And the TGI (SF-539 CNS)?
The TGI was 590 nM.

What about the GI50 (SK-MEL-2 melanoma) of the same compound?
The GI50 was 379 nM.

And the TGI (SK-MEL-2 melanoma)?
The TGI was 13900 nM.

And the GI50 (SK-MEL-28 melanoma)?
Its GI50 is 653 nM.

And the TGI (SK-MEL-28 melanoma)?
Its TGI is 16100 nM.

What about the GI50 (SK-MEL-5 melanoma) of the same compound?
The GI50 was 344 nM.

What about the TGI (SK-MEL-5 melanoma) of the same compound?
The TGI was 1600 nM.

And the GI50 (SK-OV-3 ovarian)?
Its GI50 is 614 nM.

And the TGI (SK-OV-3 ovarian)?
Its TGI is 9890 nM.

And the GI50 (SN12C renal)?
The GI50 was 410 nM.

And the TGI (SN12C renal)?
The TGI was 3910 nM.

And the GI50 (SNB-19 CNS)?
Its GI50 is 423 nM.

What about the TGI (SNB-19 CNS) of the same compound?
Its TGI is 11500 nM.

What about the GI50 (SNB-75 CNS) of the same compound?
The GI50 was 187 nM.

And the TGI (SNB-75 CNS)?
The TGI was 3830 nM.

What about the GI50 (SR leukemia) of the same compound?
The GI50 was 273 nM.

What about the GI50 (SW-620 colon) of the same compound?
The GI50 was 378 nM.

And the TGI (SW-620 colon)?
The TGI was 13600 nM.

And the GI50 (T-47D breast)?
Its GI50 is 319 nM.

And the TGI (T-47D breast)?
The TGI was 7250 nM.

What about the GI50 (TK-10 renal) of the same compound?
The GI50 was 1710 nM.

What about the TGI (TK-10 renal) of the same compound?
The TGI was 13900 nM.

And the GI50 (U251 CNS)?
Its GI50 is 349 nM.

And the TGI (U251 CNS)?
The TGI was 4570 nM.

What about the GI50 (UACC-257 melanoma) of the same compound?
The GI50 was 688 nM.

What about the TGI (UACC-257 melanoma) of the same compound?
Its TGI is 13700 nM.

What about the GI50 (UACC-62 melanoma) of the same compound?
The GI50 was 191 nM.

And the TGI (UACC-62 melanoma)?
The TGI was 1760 nM.

What about the GI50 (UO-31 renal) of the same compound?
The GI50 was 489 nM.

And the TGI (UO-31 renal)?
The TGI was 5740 nM.
